Reference: ChEMBL document CHEMBL1201862, “PubChem BioAssay data set” (2004)
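Cultured in 96-well plates, cells were exposed to test compound for 48 hours across five concentrations. GI50 = concentration required for 50% inhibition of growth.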 Activity calls are given as the source filed them. No stated cut-off is given here; in the data, active = GI50 up to about 1.1 µM and inactive = higher.

Key:
Assay in all cases: NCI anticancer screen, dose series, 48 h
A549 = test system: A549
CCRF-CEM = test system: CCRF-CEM
HT-29 = test system: HT-29
KM12 = test system: KM12
LOX IMVI = test system: LOX IMVI
Malme-3M = test system: Malme-3M
NCI-H23 = test system: NCI-H23
RXF 393 = test system: RXF 393
SF-268 = test system: SF-268
SF-295 = test system: SF-295
SF-539 = test system: SF-539
SNB-75 = test system: SNB-75
SW-620 = test system: SW-620
U-251 = test system: U-251
UACC-62 = test system: UACC-62
UO-31 = test system: UO-31
SR = test system: SR

SMILES | GI50 (A549) | GI50 (CCRF-CEM) | GI50 (HT-29) | GI50 (KM12) | GI50 (LOX IMVI) | GI50 (Malme-3M) | GI50 (NCI-H23) | GI50 (RXF 393) | GI50 (SF-268) | GI50 (SF-295) | GI50 (SF-539) | GI50 (SNB-75) | GI50 (SW-620) | GI50 (U-251) | GI50 (UACC-62) | GI50 (UO-31) | GI50 (SR)
COc1cc(/C=C2\Cc3ccccc3C2=O)cc(OC)c1OC | > 100 µM (inactive) | > 100 µM (inactive) | > 100 µM (inactive) | > 100 µM (inactive) | > 100 µM (inactive) | > 100 µM (inactive) | > 100 µM (inactive) | > 100 µM (inactive) | > 100 µM (inactive) | > 100 µM (inactive) | > 100 µM (inactive) | 51.5 µM (inactive) | > 100 µM (inactive) | > 100 µM (inactive) | > 100 µM (inactive) | > 100 µM (inactive) | –
Cc1ccc2oc(=O)cc(CC(=O)O)c2c1 | > 100 µM (inactive) | > 100 µM (inactive) | > 100 µM (inactive) | > 100 µM (inactive) | > 100 µM (inactive) | > 100 µM (inactive) | > 100 µM (inactive) | > 100 µM (inactive) | > 100 µM (inactive) | > 100 µM (inactive) | > 100 µM (inactive) | > 100 µM (inactive) | > 100 µM (inactive) | > 100 µM (inactive) | > 100 µM (inactive) | – | –
CCCCCCCCC1C(C)c2c([nH]c3ccccc23)C2C(=O)N(c3ccccc3)C(=O)C21 (configuration not stated) | 14 µM (inactive) | 2.76 µM (inactive) | 4.7 µM (inactive) | 3.71 µM (inactive) | – | 19.5 µM (inactive) | 3.73 µM (inactive) | 2.38 µM (inactive) | – | 15.7 µM (inactive) | 17.3 µM (inactive) | 19 µM (inactive) | 14.8 µM (inactive) | 8.53 µM (inactive) | 18.9 µM (inactive) | 15.2 µM (inactive) | –
O=c1/c(=C/c2cccc([N+](=O)[O-])c2)sc2nc3ccccc3n12 | > 10 µM (inactive) | > 100 µM (inactive) | > 100 µM (inactive) | > 100 µM (inactive) | 6.73 µM (inactive) | > 100 µM (inactive) | > 100 µM (inactive) | > 100 µM (inactive) | 39.2 µM (inactive) | > 10 µM (inactive) | – | 32.8 µM (inactive) | > 100 µM (inactive) | > 10 µM (inactive) | 0.446 µM (active) | > 100 µM (inactive) | –
C/C=C/C=C\C(=O)C1c2cccc(O)c2C(=O)c2c(O)cc(C)cc21 (configuration not stated) | 0.719 µM (active) | 1.27 µM (inactive) | 2.06 µM (inactive) | 0.425 µM (active) | 1.79 µM (inactive) | 1.68 µM (inactive) | 1.76 µM (inactive) | 1.37 µM (inactive) | 0.705 µM (active) | 0.957 µM (active) | 0.432 µM (active) | 1.29 µM (inactive) | 1.19 µM (inactive) | 0.446 µM (active) | – | 1.71 µM (inactive) | –
CC12OC3(C)OC(=O)C(c4ccccc4)(O1)C3(C)O2 (configuration not stated) | > 100 µM (inactive) | > 100 µM (inactive) | > 100 µM (inactive) | > 100 µM (inactive) | > 100 µM (inactive) | > 100 µM (inactive) | > 100 µM (inactive) | > 100 µM (inactive) | > 100 µM (inactive) | > 100 µM (inactive) | > 100 µM (inactive) | > 100 µM (inactive) | > 100 µM (inactive) | > 100 µM (inactive) | > 100 µM (inactive) | > 100 µM (inactive) | –
C/C(=N\NS(=O)(=O)c1c(C)cc(C)cc1C)c1ccc[n+]([O-])n1 | 65.2 µM (inactive) | 3.96 µM (inactive) | 18.3 µM (inactive) | 38.5 µM (inactive) | – | – | 15.5 µM (inactive) | – | 20.1 µM (inactive) | 62.2 µM (inactive) | 13.6 µM (inactive) | 16.9 µM (inactive) | 8.05 µM (inactive) | 41.7 µM (inactive) | 16.4 µM (inactive) | 21.2 µM (inactive) | 22.3 µM (inactive)
COc1ccc2oc(C(=O)O)c3c2c1CCC3 | > 100 µM (inactive) | > 100 µM (inactive) | > 100 µM (inactive) | – | > 100 µM (inactive) | – | > 100 µM (inactive) | > 100 µM (inactive) | – | > 100 µM (inactive) | > 100 µM (inactive) | > 100 µM (inactive) | > 100 µM (inactive) | > 100 µM (inactive) | > 100 µM (inactive) | – | –
O=C(O)CCC1c2[nH]c3ccccc3c2CCN1Cc1ccccc1 (configuration not stated) | > 100 µM (inactive) | > 100 µM (inactive) | > 100 µM (inactive) | > 100 µM (inactive) | > 100 µM (inactive) | > 100 µM (inactive) | > 100 µM (inactive) | – | > 100 µM (inactive) | > 100 µM (inactive) | > 100 µM (inactive) | > 100 µM (inactive) | > 100 µM (inactive) | > 100 µM (inactive) | > 100 µM (inactive) | > 100 µM (inactive) | > 100 µM (inactive)
COc1ccc(/N=N/c2c(-c3ccccc3)nn(C(=O)CC(=O)Nc3ccc(OC)cc3)c2-c2ccccc2)cc1 | > 100 µM (inactive) | 23.7 µM (inactive) | > 100 µM (inactive) | > 100 µM (inactive) | > 100 µM (inactive) | > 100 µM (inactive) | 33 µM (inactive) | – | 48.5 µM (inactive) | 21.1 µM (inactive) | 18.6 µM (inactive) | 16 µM (inactive) | > 100 µM (inactive) | 58.3 µM (inactive) | 42.1 µM (inactive) | > 100 µM (inactive) | –
O=C1Nc2cc(F)ccc2C1=O | > 100 µM (inactive) | > 100 µM (inactive) | > 100 µM (inactive) | > 100 µM (inactive) | > 100 µM (inactive) | > 100 µM (inactive) | > 100 µM (inactive) | > 100 µM (inactive) | > 100 µM (inactive) | > 100 µM (inactive) | > 100 µM (inactive) | > 100 µM (inactive) | 73.3 µM (inactive) | > 100 µM (inactive) | > 100 µM (inactive) | > 100 µM (inactive) | –
O=C(O)CCSC(=O)Nc1ccccc1F | > 100 µM (inactive) | > 100 µM (inactive) | > 100 µM (inactive) | > 100 µM (inactive) | > 100 µM (inactive) | – | > 100 µM (inactive) | > 100 µM (inactive) | > 100 µM (inactive) | – | > 100 µM (inactive) | – | > 100 µM (inactive) | > 100 µM (inactive) | – | > 100 µM (inactive) | > 100 µM (inactive)
O=C1NC(=O)C(=O)C(c2nc3ccccc3s2)C1=O | > 100 µM (inactive) | > 100 µM (inactive) | > 100 µM (inactive) | > 100 µM (inactive) | – | > 100 µM (inactive) | > 100 µM (inactive) | > 100 µM (inactive) | > 100 µM (inactive) | > 100 µM (inactive) | > 100 µM (inactive) | > 100 µM (inactive) | > 100 µM (inactive) | > 100 µM (inactive) | > 100 µM (inactive) | > 100 µM (inactive) | > 100 µM (inactive)
COC(=O)CCC(NC(=S)N/N=C/c1cccs1)C(=O)OC (configuration not stated) | > 100 µM (inactive) | – | > 100 µM (inactive) | > 100 µM (inactive) | > 100 µM (inactive) | > 100 µM (inactive) | > 100 µM (inactive) | > 100 µM (inactive) | > 100 µM (inactive) | > 100 µM (inactive) | > 100 µM (inactive) | > 100 µM (inactive) | > 100 µM (inactive) | > 100 µM (inactive) | > 100 µM (inactive) | > 100 µM (inactive) | > 100 µM (inactive)
NC(=O)CCC(Nc1c2ccccc2[n+]([O-])c2ccccc12)C(=O)O (configuration not stated) | > 100 µM (inactive) | 42.5 µM (inactive) | – | > 100 µM (inactive) | 49 µM (inactive) | 32.7 µM (inactive) | 35.6 µM (inactive) | – | 64.7 µM (inactive) | > 100 µM (inactive) | – | 26.7 µM (inactive) | > 100 µM (inactive) | > 100 µM (inactive) | 51.3 µM (inactive) | 58.3 µM (inactive) | –
O=C1c2ccccc2CC1C1(O)C(=O)Nc2ccccc21 (configuration not stated) | > 100 µM (inactive) | – | > 100 µM (inactive) | – | > 100 µM (inactive) | > 100 µM (inactive) | > 100 µM (inactive) | > 100 µM (inactive) | > 100 µM (inactive) | > 100 µM (inactive) | > 100 µM (inactive) | 87.3 µM (inactive) | > 100 µM (inactive) | – | > 100 µM (inactive) | 34.6 µM (inactive) | –
CC(C(=O)c1ccc(Cl)cc1)C1OC(=O)C(Cl)=C1Cl (configuration not stated) | > 100 µM (inactive) | 19 µM (inactive) | 31.6 µM (inactive) | 33.9 µM (inactive) | 24.3 µM (inactive) | 21.4 µM (inactive) | 25.2 µM (inactive) | 19.7 µM (inactive) | 30.3 µM (inactive) | > 100 µM (inactive) | 27.6 µM (inactive) | 22.1 µM (inactive) | 34.5 µM (inactive) | > 100 µM (inactive) | 19.7 µM (inactive) | 95.9 µM (inactive) | –
O=C1/C(=C/c2ccccc2)CNC/C1=C\c1ccccc1 | 2.28 µM (inactive) | 1.37 µM (inactive) | 0.841 µM (active) | 0.962 µM (active) | 0.643 µM (active) | 3.26 µM (inactive) | 1.83 µM (inactive) | – | 2.2 µM (inactive) | 2.07 µM (inactive) | 1.56 µM (inactive) | 3.38 µM (inactive) | 0.441 µM (active) | 0.36 µM (active) | 1.76 µM (inactive) | 2.02 µM (inactive) | 0.659 µM (active)
